The source of these data is US20250002455A1, “NEW N-PHENYLPYRROLAMIDE INHIBITORS OF DNA GYRASE AND TOPOISOMERASE IV WITH ANTIBACTERIAL ACTIVITY” (priority 2020, published 2025).

As a reminder, the MIC is the smallest concentration in the dilution series that meets the test's criterion for growth inhibition. The term IC50 denotes the midpoint of a concentration-inhibition curve.

Values after ≈ are worked out from the molar mass of the structure shown. Where only a bound is given, the exact number is not on record here.

For one assay, the target named is T1, E. coli topoisomerase IV (Escherichia coli, UniProt P20083).
T1 construct: purchased Inspiralis
T1 sequence (P0AFI2 whole entry): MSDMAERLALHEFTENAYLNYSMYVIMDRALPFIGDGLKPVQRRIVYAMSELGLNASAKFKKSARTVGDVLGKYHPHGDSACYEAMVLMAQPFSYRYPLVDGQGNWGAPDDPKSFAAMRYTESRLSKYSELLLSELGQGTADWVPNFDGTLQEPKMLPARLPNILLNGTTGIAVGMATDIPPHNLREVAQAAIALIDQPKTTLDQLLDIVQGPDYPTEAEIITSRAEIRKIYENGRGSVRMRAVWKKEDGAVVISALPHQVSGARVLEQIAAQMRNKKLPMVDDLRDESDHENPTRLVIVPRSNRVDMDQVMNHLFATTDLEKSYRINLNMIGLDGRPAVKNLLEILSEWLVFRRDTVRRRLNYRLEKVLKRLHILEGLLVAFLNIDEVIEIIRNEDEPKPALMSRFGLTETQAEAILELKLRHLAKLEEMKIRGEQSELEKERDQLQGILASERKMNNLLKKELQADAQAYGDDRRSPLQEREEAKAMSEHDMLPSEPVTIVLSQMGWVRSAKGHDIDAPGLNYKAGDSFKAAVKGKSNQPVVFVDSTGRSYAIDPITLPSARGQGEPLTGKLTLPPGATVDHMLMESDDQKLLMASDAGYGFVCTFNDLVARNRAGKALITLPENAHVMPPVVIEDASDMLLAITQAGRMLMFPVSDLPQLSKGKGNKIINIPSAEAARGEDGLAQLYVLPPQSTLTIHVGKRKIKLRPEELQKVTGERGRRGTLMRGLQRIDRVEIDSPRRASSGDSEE
T1 sequence (P20083 whole entry): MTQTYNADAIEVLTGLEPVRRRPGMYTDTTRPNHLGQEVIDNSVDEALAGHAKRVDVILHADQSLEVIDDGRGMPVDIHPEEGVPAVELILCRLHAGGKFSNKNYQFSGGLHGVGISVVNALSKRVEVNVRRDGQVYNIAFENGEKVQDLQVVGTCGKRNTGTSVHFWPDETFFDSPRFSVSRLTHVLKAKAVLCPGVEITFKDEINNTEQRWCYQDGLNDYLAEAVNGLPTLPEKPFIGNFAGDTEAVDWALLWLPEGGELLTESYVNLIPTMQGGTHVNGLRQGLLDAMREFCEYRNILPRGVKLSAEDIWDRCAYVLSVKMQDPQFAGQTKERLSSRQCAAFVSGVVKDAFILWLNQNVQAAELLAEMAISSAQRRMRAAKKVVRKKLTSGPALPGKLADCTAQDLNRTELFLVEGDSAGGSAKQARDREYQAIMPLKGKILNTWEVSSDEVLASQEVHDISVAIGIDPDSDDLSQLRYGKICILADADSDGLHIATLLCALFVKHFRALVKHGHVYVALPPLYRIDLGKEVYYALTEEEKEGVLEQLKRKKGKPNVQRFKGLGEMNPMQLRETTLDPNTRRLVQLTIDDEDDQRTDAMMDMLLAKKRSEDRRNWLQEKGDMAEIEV
Nature of the assay: biochemical. Particulars: E. coli topo IV; 10 μM compound; read-out: RA (residual activity of the enzyme). The protocol:
Inhibitory activities for compounds of the present invention were determined on E. coli and S. aureus DNA gyrase and topoisomerase IV in an assay from Inspiralis on streptavidin-coated 96-well microtiter plates from Thermo scientific Pierce. […] After washing off the unbound oligonucleotide, the enzyme test was performed. […] Reaction solutions were incubated at 37° C. for 30 min. After that, the TF buffer (50 mM NaOAc with pH 5.0, 50 mM NaCl and 50 mM MgCl2) was added to terminate the enzymatic reaction. After additional incubation for 30 min at rt, during which biotin-oligonucleotide-plasmid triplex was formed, the unbound plasmid was washed off using TF buffer and SybrGOLD in T10 buffer (10 mM Tris HCl with pH 8.0 and 1 mM EDTA) was added. […] Initial screening was done at 100 or 10 nM concentration of inhibitors against E. coli DNA gyrase or 1 μM or 100 nM concentration against S. aureus DNA gyrase and E. coli and S. aureus topo IV. […] GraphPad Prism 6.0 software was used to calculate the IC50 values. The result is given as the average value of three independent measurements. […] Chemoth.

The next assay concerns the target T2, E. coli DNA gyrase (Escherichia coli, UniProt P0AES6).
T2 construct: purchased Inspiralis
Briefly: biochemical. Particulars: E. coli DNA gyrase; for IC50: read-out: IC50. The protocol: Inhibitory activities for compounds of the present invention were determined on E. coli and S. aureus DNA gyrase and topoisomerase IV in an assay from Inspiralis on streptavidin-coated 96-well microtiter plates from Thermo scientific Pierce. […] After washing off the unbound oligonucleotide, the enzyme test was performed. […] Reaction solutions were incubated at 37° C. for 30 min. After that, the TF buffer (50 mM NaOAc with pH 5.0, 50 mM NaCl and 50 mM MgCl2) was added to terminate the enzymatic reaction. After additional incubation for 30 min at rt, during which biotin-oligonucleotide-plasmid triplex was formed, the unbound plasmid was washed off using TF buffer and SybrGOLD in T10 buffer (10 mM Tris HCl with pH 8.0 and 1 mM EDTA) was added. […] GraphPad Prism 6.0 software was used to calculate the IC50 values. The result is given as the average value of three independent measurements. […] Chemoth.

For assay [1], the system named is S. aureus ATCC 43300 (MRSA). Nature of the assay: Microbroth dilution MIC (CLSI). The format is cell-based. The note with it: Staphylococcus aureus; S. aureus ATCC 43300 (MRSA); read-out: MIC. As to the method: (§1) The chemical entities described in the present invention were assessed for their antimicrobial activity using a microbroth dilution assay as recommended by the CLSI (Methods for Dilution Antimicrobial Susceptibility Tests for Bacteria That Grow Aerobically, and Methods for Antimicrobial Susceptibility Testing of Anaerobic Bacteria, Clinical and Laboratory Standards Institute, Document M07-A8, and M11-A8, Wayne, PA 19087, USA, 2012.). Compounds were dissolved by using 100% DMSO. Serial two-fold dilutions of each compound were made by using 100% DMSO as the diluent.
(§2) A library of Gram-negative and Gram-positive microbes and their drug- and multidrug-resistant variants were employed as test organisms. The MIC (minimum inhibitory concentration) was determined as the lowest concentration of an individual drug that lead to no visible growth.
For orientation: Broth dilution looks for growth in wells or tubes with falling amounts of substance.

Assay [2] has as its system E. spp. cloacae ATCC 13047. Briefly: Microbroth dilution MIC (CLSI). The class given is cell-based. The note with it: Enterobacter cloacae, ATCC13047; E. spp. cloacae ATCC 13047; read-out: MIC. As to the method:
as §1, §2

A further assay relates to E. coli ATCC 25922. Briefly: Microbroth dilution MIC (CLSI). The class given is cell-based. Particulars: Escherichia coli, ATCC25922; E. coli ATCC 25922; read-out: MIC. As to the method: as §1, §2
The subject of the next assay is S. aureus ATCC 29213. Briefly: Microbroth dilution MIC (CLSI). The class given is cell-based. Particulars: Staphylococcus aureus, ATCC29213; S. aureus ATCC 29213; read-out: MIC. As to the method:
as §1, §2

The test system of a further assay is E. faecalis ATCC 29212. Briefly: Microbroth dilution MIC (CLSI). The format is cell-based. The note with it: Enterococcus faecalis, ATCC29212; E. faecalis ATCC 29212; read-out: MIC. As to the method:
as §1, §2

Another assay relates to A. baumannii ATCC 17978. Briefly: Microbroth dilution MIC (CLSI). The format is cell-based. The note with it: Acinetobacter baumannii, ATCC17978; A. baumannii ATCC 17978; read-out: MIC. The protocol:
as §1, §2

A further assay deals with E. faecium ATCC 700221. Briefly: Microbroth dilution MIC (CLSI). The class given is cell-based. Particulars: Enterococcus faecium, ATCC700221; E. faecium ATCC 700221; read-out: MIC. The protocol: as §1, §2
In another assay the test system is K. pneumoniae ATCC 10031. Nature of the assay: Microbroth dilution MIC (CLSI). The class given is cell-based. Particulars: Klebsiella pneumoniae, ATCC10031; K. pneumoniae ATCC 10031; read-out: MIC. As to the method:
as §1, §2

A further assay deals with P. aeruginosa ATCC 27853. Briefly: Microbroth dilution MIC (CLSI). The class given is cell-based. The note with it: Pseudomonas aeruginosa, ATCC27853; P. aeruginosa ATCC 27853; read-out: MIC. The protocol:
as §1, §2

Assay [3] concerns S. aureus ATCC 700699 (VISA). Nature of the assay: Microbroth dilution MIC (CLSI). The format is cell-based. The note with it: Staphylococcus aureus; S. aureus ATCC 700699 (VISA); read-out: MIC. As to the method: as §1, §2

With `Cc1[nH]c(C(=O)Nc2ccc(-n3nn[nH]c3=O)cc2N2Cc3ccccc3C2)c(Cl)c1Cl` [Example 25, 3,4-Dichloro-N-(2-(isoindolin-2-yl)-4-(5-oxo-4,5-dihydro-1H-tetrazol-1-yl)phenyl)-5-methyl-1H-pyrrole-2-carboxamide], on E. coli topoisomerase IV, the remaining activity at 10 µM worked out at 105%. In addition, the remaining activity at 10 pM at E. coli DNA gyrase (0.01 nM compound, read-out: RA (residual activity of the enzyme)) turned out to be 73%. For the same compound, the remaining activity at 0.0001 µM on E. coli DNA gyrase (0.1 nM compound, read-out: RA (residual activity of the enzyme)) came to 26%. Moreover, the MIC in [1] was above 64 µg/mL; in [2], above 64 µg/mL; in the assay with E. coli ATCC 25922 it was above 64 µg/mL; in the assay on S. aureus ATCC 29213, 16 µg/mL (≈ 34 µM); in the assay with E. faecalis ATCC 29212, 0.25 µg/mL (≈ 0.532 µM); in the assay with A. baumannii ATCC 17978, above 64 µg/mL. Moreover, the MIC in the assay with E. faecium ATCC 700221 was 0.5 µg/mL (≈ 1.06 µM); in the assay with K. pneumoniae ATCC 10031 it was above 64 µg/mL; with P. aeruginosa ATCC 27853, above 64 µg/mL; in assay [3], above 64 µg/mL.

Turning to `Cc1[nH]c(C(=O)Nc2ccc(-c3n[nH]c(=O)o3)cc2NC2CCNCC2)c(Cl)c1Cl.Cl` [Example 19, 4-((2-(3,4-Dichloro-5-methyl-1H-pyrrole-2-carboxamido)-5-(5-oxo-4,5-dihydro-1,3,4-oxadiazol-2-yl)phenyl)amino)piperidin-1-ium chloride], on E. coli DNA gyrase, the IC50 is 4.4 nM. The minimal inhibitory concentration (MIC) (in assay [1]; in assay [2]; with E. coli ATCC 25922; with S. aureus ATCC 29213; in the assay with E. faecalis ATCC 29212; in the assay with A. baumannii ATCC 17978) was above 64 µg/mL in each case. In addition, the MIC in the assay on E. faecium ATCC 700221 is above 64 µg/mL; in the assay on K. pneumoniae ATCC 10031 it was 2 µg/mL; in the assay on P. aeruginosa ATCC 27853 it was above 64 µg/mL; in assay [3] it was above 64 µg/mL.

Regarding `Cc1[nH]c(C(=O)Nc2ccc(-c3n[nH]c(=O)o3)cc2OCC2CCCNC2)c(Cl)c1Cl.Cl` (stereo not shown) [Example 28, 3-((2-(3,4-Dichloro-5-methyl-1H-pyrrole-2-carboxamido)-5-(5-oxo-4,5-dihydro-1,3,4-oxadiazol-2-yl)phenoxy)methyl)piperidin-1-ium chloride], the IC50 on E. coli DNA gyrase worked out at 0.75 nM. Also, the MIC (in [1]; in assay [2]; in the assay on E. coli ATCC 25922; in the assay with S. aureus ATCC 29213; in the assay with E. faecalis ATCC 29212; in the assay with A. baumannii ATCC 17978) was above 64 µg/mL in each case. Besides, the MIC in the assay with E. faecium ATCC 700221 is above 64 µg/mL; in the assay on K. pneumoniae ATCC 10031 it was 0.5 µg/mL; in the assay on P. aeruginosa ATCC 27853, above 64 µg/mL; in assay [3], above 64 µg/mL.

For the compound `Cc1[nH]c(C(=O)Nc2ccc(-c3n[nH]c(=O)o3)cc2OCc2ccccc2)c(Cl)c1Cl` [Example 11, N-(2-(Benzyloxy)-4-(5-oxo-4,5-dihydro-1,3,4-oxadiazol-2-yl)phenyl)-3,4-dichloro-5-methyl-1H-pyrrole-2-carboxamide], at E. coli topoisomerase IV, the remaining activity at 10 µM amounted to 106%. Further, at E. coli DNA gyrase, the IC50 came to 886 nM. Besides, the MIC (in assay [1]; in [2]; with E. coli ATCC 25922; in the assay on S. aureus ATCC 29213; in the assay on E. faecalis ATCC 29212; in the assay on A. baumannii ATCC 17978) was at least 32 µg/mL each time. The MIC (in the assay with E. faecium ATCC 700221; in the assay on K. pneumoniae ATCC 10031; in the assay with P. aeruginosa ATCC 27853; in assay [3]) was at least 32 µg/mL in each case.

In the case of `Cc1[nH]c(C(=O)Nc2ccc(-c3n[nH]c(=O)o3)cc2OC2CCNC2)c(Cl)c1Cl.Cl` (stereo not shown) [Example 26, 3-(2-(3,4-Dichloro-5-methyl-1H-pyrrole-2-carboxamido)-5-(5-oxo-4,5-dihydro-1,3,4-oxadiazol-2-yl)phenoxy)pyrrolidin-1-ium chloride], the IC50 on E. coli DNA gyrase was found to be 3.54 nM. Also, the MIC (in assay [1]; in assay [2]; in the assay on E. coli ATCC 25922; with S. aureus ATCC 29213; in the assay with E. faecalis ATCC 29212; in the assay on A. baumannii ATCC 17978) was at least 32 µg/mL each time. Besides, the minimal inhibitory concentration (MIC) (with E. faecium ATCC 700221; with K. pneumoniae ATCC 10031; with P. aeruginosa ATCC 27853; in assay [3]) was at least 32 µg/mL throughout.

As for `Cc1[nH]c(C(=O)Nc2ccc(-c3noc(=O)[nH]3)cc2N2CCN(c3ccccc3)CC2)c(Cl)c1Cl` [Example 7, 3,4-Dichloro-5-methyl-N-(4-(5-oxo-4,5-dihydro-1,2,4-oxadiazol-3-yl)-2-(4-phenylpiperazin-1-yl)phenyl)-1H-pyrrole-2-carboxamide], the IC50 at E. coli DNA gyrase is 109 nM. The MIC was 0.0625 µg/mL (≈ 0.122 µM) in assay [1]; above 64 µg/mL in assay [2]; above 64 µg/mL in the assay with E. coli ATCC 25922; 4 µg/mL (≈ 7.79 µM) in the assay with S. aureus ATCC 29213; 0.125 µg/mL (≈ 0.243 µM) in the assay on E. faecalis ATCC 29212; above 64 µg/mL in the assay with A. baumannii ATCC 17978. The MIC with E. faecium ATCC 700221 is 4 µg/mL (≈ 7.79 µM); in the assay with K. pneumoniae ATCC 10031, above 64 µg/mL; in the assay on P. aeruginosa ATCC 27853, above 64 µg/mL; in [3], 2 µg/mL (≈ 3.9 µM).

As to `Cc1[nH]c(C(=O)Nc2ccc(-n3nn[nH]c3=O)cc2N2CCN(c3ccccc3)CC2)c(Cl)c1Cl` [Example 24, 3,4-Dichloro-5-methyl-N-(4-(5-oxo-4,5-dihydro-1H-tetrazol-1-yl)-2-(4-phenylpiperazin-1-yl)phenyl)-1H-pyrrole-2-carboxamide], the IC50 on E. coli DNA gyrase was 7.8 nM. In addition, the MIC in assay [1] was at least 32 µg/mL; in assay [2], at least 32 µg/mL; with E. coli ATCC 25922, at least 32 µg/mL; in the assay with S. aureus ATCC 29213, at least 32 µg/mL; with E. faecalis ATCC 29212 it was 0.5 µg/mL (≈ 0.974 µM); in the assay on A. baumannii ATCC 17978 it was at least 32 µg/mL. The minimal inhibitory concentration (MIC) in the assay on E. faecium ATCC 700221 is 0.5 µg/mL (≈ 0.974 µM); in the assay on K. pneumoniae ATCC 10031, at least 32 µg/mL; with P. aeruginosa ATCC 27853, at least 32 µg/mL; in assay [3], 0.5 µg/mL (≈ 0.974 µM).

Take `Cc1[nH]c(C(=O)Nc2ccc(C(=O)O)cc2N2CCN(c3ccccc3)CC2)c(Cl)c1Cl` [Example 16, 4-(3,4-Dichloro-5-methyl-1H-pyrrole-2-carboxamido)-3-(4-phenylpiperazin-1-yl)benzoic acid]: on E. coli DNA gyrase, the IC50 worked out at 199 nM. Further, the MIC (in assay [1]; in assay [2]; in the assay with E. coli ATCC 25922; in the assay with S. aureus ATCC 29213; in the assay on E. faecalis ATCC 29212; with A. baumannii ATCC 17978) was above 64 µg/mL each time. In addition, the MIC (in the assay on E. faecium ATCC 700221; in the assay with K. pneumoniae ATCC 10031; with P. aeruginosa ATCC 27853; in [3]) was above 64 µg/mL each time.
